Assay [1] relates to transdifferentiating ELC (TuDC-ELC). Put plainly: Matrigel tube formation assay of TuDC-ELC. In kind it is cell-based, human. As to conditions: for tube formation of TuDC-ELC in Matrigel: 10 μg/mL, 7 days, clinical and subclinical concentrations. The source says: We have recently developed a model for an alternative pathway of tumor angiogenesis. […] These endothelial-like cells (ELC) can transdifferentiate from tumor-associated dendritic cells under specific culture conditions (11). Briefly, monocytes are elutriated from leukapheresis products of healthy human blood donors and cultured in the presence of granulocyte-macrophage-colony stimulating factor (GM-CSF) and interleukin 4 (IL-4) to stimulate the differentiation of dendritic cells (DC). In addition, cells are treated with a cocktail specifically released by tumor cells (M-CSF, IL.6 and lactate, Gottfried et al., manucript submitted) to promote the outgrowth of tumor-associated dendritic cells (TuDC).
In addition, they are able to form tube-like structures in Matrigel™, an in vitro assay of angiogenesis.
(§1) The Matrigel™ assay is one of the most popular and widely used in vitro angiogenesis assays (22). Matrigel™ is a semisolid synthetic mixture of extracellular matrix proteins which simulate the matrix that physiologically exist beneath the endothelial cell wall of a blood vessel. When the cells of question are seeded onto this matrix in microscopic chamber slides, they are activated to form tubular structures in 3-7 days, but only in the case that they have an endothelial phenotype. Therefore, this assay is suitable to show the potential capacity of cells to give rise to a tumor vasculature.
(§2) TuDC-ELC and mature, differentiated endothelial cells, [human umbilical vene (HUVEC) or microvascular endothelial cells (HMEC) as “stable” controls] were incubated in the presence or absence of oligotide or Defibrotide (10 μg/mL each) for 7 days.
By the help of a complimentary software from the NIH (Image J, http://rsb.info.nih.gov/ij/), we are able to quantify these effects, the total length of tubes and the area of the photograph are assessed, the microvascular density (MVD) is then given in total length/area [pix-1].

The subject of assay [2] is human umbilical vene (HUVEC) endothelial cells. Put plainly: Matrigel tube formation assay of HUVEC. In kind it is cell-based. As to conditions: single addition, 10 μg/mL, 7 days. On the procedure: as §1, §2
The subject of assay [3] is microvascular endothelial cells (HMEC). The assay can be described thus: Matrigel tube formation assay of HMEC. In kind it is cell-based, human. The settings on record: single addition, 10 μg/mL, 7 days. On the procedure:
as §1, §2

Assay [4] has as its system human microvascular endothelial cells. The assay can be described thus: Angiogenesis assay of microvascular endothelial cells vascularizing through a layer of dermal fibroblasts. In kind it is cell-based. As to the method: The aortic ring assay investigates macrovascular endothelial cells. But often, the tumor vasculature consists of microvascular endothelial cells. Therefore, a third in vitro angiogenesis assay was performed on the basis of microvascular endothelial cells vascularizing through a layer of dermal fibroblasts after 9-11 days of culture. These vessel-like structures can subsequently be visualized by staining for CD31 and vWF.

A further assay relates to human gastric carcinoma. The assay can be described thus: Dorsal skin chamber assay, human gastric carcinoma mouse model (Xenograft system). The settings on record: first data; treated vs control tumors. In kind it is in vivo. The text has this: We are currently performing a dorsal skin chamber assay (14) that investigates the effect of defibrotide in a highly vascularized human gastric carcinoma mouse model (Xenograft system). […] This set of experiments will be reproduced in due time.

The test system of assay [5] is activated p70S6 kinase (p-p70S6). Put plainly: Western Blot analyses of activated p70S6 kinase. In kind it is cell-based. As to conditions: preliminary evidence.

As for defibrotide, the “tube formation of TuDC-ELC in Matrigel” value in assay [1] is listed as “inhibit tube formation”. Also, the “microvascular density (MVD), total length/area” value in assay [1] (TuDC-ELC, p=0.02, TTEST, FIG. 1B) is given as “downregulates”. Further, the tube formation potential entry in assay [2] and in assay [3] was “not affected” each time. The “angiogenesis of human microvascular endothelial cells” value in assay [4] (daily application, 9-11 days of culture, CD31 and vWF staining) was “block angiogenesis”. For the same substance, in assay [4] (human microvascular endothelial cells, FIGS. 3A and B), the most effective concentration entry was “around 10 μg/mL”. The “microvascular density (MVD) of tumors” value in the assay with human gastric carcinoma is “lower than that of control tumors”. The “effect on activated p70S6 kinase (p-p70S6)” value in assay [5] is “downregulating effect”.

For the substance oligotide, the “tube formation of TuDC-ELC in Matrigel” value in assay [1] is listed as “inhibit tube formation”.

The record behind these values is US20080194507A1, “Defibrotide An/Or Oligodeoxyribonucleotides For Treating Angiogenesis-Dependent Tumors” (priority 2005, published 2008).
